Measurements taken from patent US5616615A, “Enaminone esters” (priority 1995, dated 1997).
Like-named read-outs stand apart in the source and are kept apart here.

Columns and labels:
[1] = test system: seizures; assay: Anticonvulsant evaluation (ASP phase I / overall); type: in vivo, mice; details: Mus musculus, ip, read-out: ASP Classification
Method: (§1) The first phase of the ADD Program involved performing tests on male Carworth Farms #1 mice. […] Three tests were performed:
(§2) Maximal electroshock seizures are elicited with a 60-cycle alternating current of 50 mA intensity (5-7 times that necessary to elicit minimal electroshock seizures) delivered via corneal electrodes for 0.2 seconds. A drop of 0.9% saline is instilled in the eye prior to application of the electrodes in order to […].
The animal is observed for 30 minutes.

[2] = test system: Maximal electroshock seizures; assay: MES maximal electroshock seizure test, mice ip; type: in vivo; design: TPE (time of peak effect), activity: unit not given here
Method: Three tests were performed:
1. MES--Electroshock Seizure Test
as §2

[3] = test system: Subcutaneous Pentylenetetrazol seizure; assay: sc Met subcutaneous pentylenetetrazol (Metrazol) seizure test, mice; type: in vivo; details: for responders at 300 mg/kg / responders at 100 mg/kg: Mus musculus, sc
Method: 2. sc Met--Subcutaneous Pentylenetetrazol (Metrazol^R) Seizure Test
The animal is observed for 30 minutes. Failure to observe even a threshold seizure (a single episode of clonic spasms of at least 5 seconds duration) is defined as protection and the results are expressed as the number of animals protected/the number of animals tested.

[4] = Tox rotorod neurotoxicity, mice ip
Method: as §1
In the second phase of the ADD program protocol, estimates of anticonvulsant activity and neurotoxicity are quantified. The median effective dose (ED50) in the MES, sc Met, and rotorod test is determined. In the case of a compound with apparent activity in only one anticonvulsant test, testing is carried out in the other up to, and in some cases beyond, doses which produce neurological deficit. Compounds which fail to produce minimal neurological deficit are tested whenever possible to doses ten times their lowest anticonvulsant ED50. […] The rotorod ED50 is determined at the time of the peak neurologic deficit.

[5] = test system: Maximal electroshock seizures; assay: Phase VI oral MES test, rats; type: in vivo; details: for responders at 50 mg/kg: Rattus norvegicus
Excerpt: as §2
(§3) This oral screen is designated as phase VI.

[6] = in vivo; details: rat, po, 50 mg/kg
Excerpt: as §3

[7] = Mus musculus, ip, 0.5 h, read-out: MES, animals protected/tested
[8] = Mus musculus, ip, 4 h, read-out: MES, animals protected/tested
[9] = 0.5 h, read-out: scMet, animals protected/tested
[10] = 4 h, read-out: scMet, animals protected/tested
[11] = 0.5 h, oral, 50 mg/kg, 0.50 h, read-out: MES, animals protected/tested (converted)
[12] = oral, 50 mg/kg, 0.25 h, read-out: MES, animals protected/tested (converted)
[13] = oral, 50 mg/kg, 1.00 h, read-out: MES, animals protected/tested (converted)
[14] = oral, 50 mg/kg, 2.00 h, read-out: MES, animals protected/tested (converted)
[15] = oral, 50 mg/kg, 4.00 h, read-out: MES, animals protected/tested (converted)
[16] = Mus musculus, ip, 0.5 h, 100 mg/kg, 30 min, read-out: MES, animals protected/tested (converted)
[17] = Mus musculus, ip, 0.5 h, 300 mg/kg, 30 min, read-out: MES, animals protected/tested
[18] = Mus musculus, ip, 4 h, 100 mg/kg, 4 h, read-out: MES, animals protected/tested (converted)
[19] = Mus musculus, ip, 4 h, 300 mg/kg, 4 h, read-out: MES, animals protected/tested
[20] = 0.5 h, 100 mg/kg, 30 min, read-out: scMet, animals protected/tested (converted)
[21] = 0.5 h, 300 mg/kg, 30 min, read-out: scMet, animals protected/tested (converted)
[22] = 4 h, 100 mg/kg, 4 h, read-out: scMet, animals protected/tested (converted)
[23] = 4 h, 300 mg/kg, 4 h, read-out: scMet, animals protected/tested (converted)

## CC1(C)CC(=O)C=C(NCCc2ccccc2)C1 [Compound 145]
[1]
  minimal effective dose: > 100 mg/kg
[2]; Mus musculus, ip, 0.25 h, read-out: MES, animals protected/tested
  responders at 100 mg/kg: 0%
[2]; [7]
  responders at 300 mg/kg: 100%
[2]; Mus musculus, ip, 1 h, read-out: MES, animals protected/tested
  responders at 100 mg/kg: 0%
[2]; [8]
  responders at 300 mg/kg: 0%
[3]; [9]
  responders at 300 mg/kg: 0%
[3]; [10]
  responders at 300 mg/kg: 0%
[4]; 300 mg/kg, 30 min
  Tox, animals exhibiting toxicity/tested: 4/4
[4]; 300 mg/kg, 4 h
  Tox, animals exhibiting toxicity/tested: 0/2
[4]; Phase II, 100 mg/kg, 0.25 h
  Tox (rotorod), animals toxic/tested: 0/2
[4]; Phase II, 100 mg/kg, 1.00 h
  Tox (rotorod), animals toxic/tested: 0/2

## O=C1C=C(NCCc2ccccc2)CCC1 [Compound 149]
[1]
  minimal effective dose: < 100 mg/kg
[5]; po, 0.25 h, read-out: MES, animals protected/tested
  responders at 50 mg/kg: 100%
[5]; po, 0.5 h, read-out: MES, animals protected/tested
  responders at 50 mg/kg: 100%
[5]; po, 1 h, read-out: MES, animals protected/tested
  responders at 50 mg/kg: 75%
[5]; po, 2 h, read-out: MES, animals protected/tested
  responders at 50 mg/kg: 25%
[5]; po, 4 h, read-out: MES, animals protected/tested
  responders at 50 mg/kg: 25%
[2]; [7]
  responders at 100 mg/kg: 100%
  responders at 300 mg/kg: 100%
[2]; [8]
  responders at 100 mg/kg: 0%
  responders at 300 mg/kg: 0%
[3]; [9]
  responders at 100 mg/kg: 0%
[3]; [10]
  responders at 100 mg/kg: 0%
  responders at 300 mg/kg: 0%
[4]; 100 mg/kg, 30 min
  Tox, animals exhibiting toxicity/tested: 4/8
[4]; 100 mg/kg, 4 h
  Tox, animals exhibiting toxicity/tested: 0/4
[4]; 300 mg/kg, 4 h
  Tox, animals exhibiting toxicity/tested: 1/2

## O=C1C=C(Nc2ccc(C(F)(F)F)cc2)CCC1 [Compound 151]
[1]; Phase I
  minimal effective dose: < 100 mg/kg
[5]; [11]
  responders at 50 mg/kg: 25%
[5]; [12]
  responders at 50 mg/kg: 75%
[5]; [13]
  responders at 50 mg/kg: 25%
[5]; [14]
  responders at 50 mg/kg: 50%
[5]; [15]
  responders at 50 mg/kg: 0%
[6]
  Tox, animals toxic/tested: 0/4
[2]; [16]
  responders at 100 mg/kg: 100%
[2]; [17]
  responders at 300 mg/kg: 100%
[2]; [18]
  responders at 100 mg/kg: 0%
[2]; [19]
  responders at 300 mg/kg: 100%
[3]; [20]
  responders at 100 mg/kg: 0%
[3]; [21]
  responders at 300 mg/kg: 0%
[3]; [22]
  responders at 100 mg/kg: 0%
[3]; [23]
  responders at 300 mg/kg: 0%

## O=C1C=C(Nc2ccc(Cl)cc2)CC1 [Compound 152, 3-(4'-Chlorophenyl)amino-2-cyclopentenone]
[1]; Phase I
  minimal effective dose: < 100 mg/kg
[5]; [11]
  responders at 50 mg/kg: 25%
[5]; [12]
  responders at 50 mg/kg: 0%
[5]; [13]
  responders at 50 mg/kg: 25%
[5]; [14]
  responders at 50 mg/kg: 75%
[5]; [15]
  responders at 50 mg/kg: 50%
[6]
  Tox, animals toxic/tested: 0/4
[2]; [16]
  responders at 100 mg/kg: 33.3%
[2]; [17]
  responders at 300 mg/kg: 100%
[2]; [18]
  responders at 100 mg/kg: 0%
[2]; [19]
  responders at 300 mg/kg: 0%
[3]; [20]
  responders at 100 mg/kg: 0%
[3]; [21]
  responders at 300 mg/kg: 0%
[3]; [22]
  responders at 100 mg/kg: 0%
[3]; [23]
  responders at 300 mg/kg: 0%

## O=C1C=C(NCCc2ccccc2)CCC1 [Compound 154]
[5]; oral, 50 mg/kg, 0.25 h
  MES, animals protected/tested: 0/4
[5]; oral, 50 mg/kg, 0.50 h
  MES, animals protected/tested: 0/4
[5]; oral, 50 mg/kg, 1.00 h
  MES, animals protected/tested: 0/4
[5]; oral, 50 mg/kg, 2.00 h
  MES, animals protected/tested: 0/4
[5]; oral, 50 mg/kg, 4.00 h
  MES, animals protected/tested: 0/4
[6]
  Tox, animals toxic/tested: 0/4
[2]; 300 mg/kg, 30 min
  MES, animals protected/tested: 1/1
[2]; 300 mg/kg, 4 h
  MES, animals protected/tested: 0/1
[2]; Phase II, 100 mg/kg, 0.25 h
  MES, animals protected/tested: 2/2
[2]; Phase II, 100 mg/kg, 1.00 h
  MES, animals protected/tested: 0/2
[3]; 300 mg/kg, 30 min
  scMet, animals protected/tested: 0/1
[3]; 300 mg/kg, 4 h
  scMet, animals protected/tested: 0/1
[4]; mouse, in vivo, 100 mg/kg
  Tox (rotorod), animals toxic/tested: 0/2

## CCCC(CCC)C(=O)O [valproate, reference compound]
[2]; Mus musculus, Phase II, ip, time of peak effect
  ED50: 665 mg/kg
[2]; Phase II, ip
  TPE (time of peak effect), activity: 1
[4]; Phase II, ip, commercial products, onset of ataxia
  TPE (time of peak effect), toxicity: 2
